Where a name gives a salt, the structure may show the parent alone.
How the values were obtained:
[1] = biological target: T1, histamine H2 receptor in atria (Cavia porcellus, UniProt P47747); test: Histamine H2 receptor inhibition effect by isolated guinea pig right atrium preparation (negative chronotropic effect); format: cell-based, Male Hartley Guinea Pig; details: 5×10^-6 mol sample 3 minutes prior to histamine, mean of five; for Kb: read-out: inhibitory effect of histamine H2 receptor in atria (pA2 value) (converted)
T1 construct: right atrium was isolated; from tissue; host or cells: isolated right atrium of male Hartley guinea pig
Description: (B) Measurement of Histamine H2 Receptor Inhibition Effect by Isolated Guinea Pig Right Atrium Preparation
Male Hartley Guinea Pig weighing around 400 g was sacrified by decapitation, and right atrium was isolated. The right atrium was suspended in an organ bath (50 ml) containing modified Ringer solution. Under application of a tensile load of 1 g, the heart rate was recorded by means of a polygraph. Histamine was applied cumulatively from 1×10^-7 mol to 3×10^-4 mol and a cumulative dosage response curve was drawn. Then, 5×10^-6 mol of the sample was administered 3 minutes prios to histamine application. The negative logarithmic value (pA2) of the specimen molarity required for shifting the curve to the right to double concentration was calculated.

[2] = Acute oral toxicity test in mice (LD50, Litchfield-Wilcoxon); details: mouse, in vivo, similar test, oral dose of 1500 mg/kg
Description: Male dd-mice were divided into groups of 5 and fasted for 8 hours. The test compounds were administered orally to the mice weighing from 19.7 g. to 22.0 g. The mice were observed survival or death as well as the general symptoms over 7 days after the administration of the compounds. The value of LD50 for each compound was estimated from the mortality observed on the basis of the Litchfield-Wilcoxon method.
In a similar test, the test compound of example 27, 35, 66, 84, 97, 104, 118, 125 or 129 was administered orally to the mice at a dose of 1500 mg/kg.

[3] = tested on: acid secretion in pylorus-ligated rats; test: Anti-secretory effect (histamine-stimulated gastric acid secretion) in pylorus-ligated rat; format: in vivo, male wistar rats; details: 30 min before histamine 3 mg/kg s.c., ** at 1% vs control; for inhibition in vivo at 2 mg/kg: Rattus norvegicus, sc, 3 h, 2 mg/kg s.c., n=5, * significant at 5%, read-out: inhibitory effect of acid secretion (%) at 2 mg/kg s.c.
Description: (A) Anti-secretory Effect in Pylorus-ligated Rat
After 24 hr fasting, male wistar rats weighing about 160 g were anesthetized by intraperitoreal injection of urethans 1.2 g/kg. Then, after ligating the pylorus and the esophagus, the proventriculus was incised and a double polyethylene cannula was inserted. The gastric wall was washed out with 5 ml of physiological saline every 30 minutes and the amount of acid contained in the saline after washing was measured by titration. After measuring the basal acid secretion of the pylorus ligated rats three times, the compounds of the invention, 2 mg/kg, were administered subcutaneously and, 30 minutes thereafter, histamine 3 mg/kg, was administered also subcutaneously. Then, the amounts of acid secretion were measured for 3 hours. […] Then, an inhibition rate was calculated in accordance with the following formula, in relation to the increment values measured for the control group. [formula]
One group included five examples.

T1 sequence (P47747 whole entry): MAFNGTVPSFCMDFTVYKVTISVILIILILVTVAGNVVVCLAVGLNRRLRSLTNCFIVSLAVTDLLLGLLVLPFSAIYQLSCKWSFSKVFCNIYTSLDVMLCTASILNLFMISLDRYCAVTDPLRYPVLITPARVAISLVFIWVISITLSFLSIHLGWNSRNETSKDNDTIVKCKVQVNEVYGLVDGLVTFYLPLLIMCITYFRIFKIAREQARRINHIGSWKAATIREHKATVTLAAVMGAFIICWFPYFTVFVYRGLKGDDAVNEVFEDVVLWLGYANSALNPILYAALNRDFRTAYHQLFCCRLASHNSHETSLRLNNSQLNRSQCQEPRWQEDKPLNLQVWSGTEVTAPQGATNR

Row | Compound | Kb [1] [nM] | inhibitory effect of histamine H2 receptor in atria (pA2 value) [1] | LD50 at 168 h [2] [mg/kg] | inhibition in vivo at 2 mg/kg [3] [%] | inhibitory effect of acid secretion (%) at 2 mg/kg s.c. ([3]; n=5, * significant at 5%) [%]
1 | CN(C)Cc1nc2cc(OCCCNc3ncc(Cc4cccnc4)c(=O)[nH]3)ccc2[nH]1 [Example 66, 2-[3-<5-(2-dimethylaminomethylbenzimidazolyl)oxy>propylamino]-5-(3-pyridylmethyl)-4-pyrimidone] | 1950 | – | > 1500 | 100 | –
2 | O=c1[nH]c(NCCCOc2ccc3[nH]c(CN4CCCC4)nc3c2)nnc1Cc1cccnc1 [Example 84] | 2190 | – | > 1500 | 75 | –
3 | CN(C)Cc1nc2cc(CSCCNC3=NS(=O)(=O)N=C3N)ccc2[nH]1 [Example 104, 3-[2-<5-(2-dimethylaminomethylbenzimidazolyl)methylthio>ethyl]amino-4-amino-1,2,5-thiadiazole-1.1-dioxide] | 1950 | – | > 1500 | 96 | –
4 | CN(C)Cc1nc2cc(CSCCC(N)=NC#N)ccc2[nH]1 [Example 125, N-cyano-3-[5-(2-dimethylaminomethylbenzimidazolyl)methylthio]propionamidine] | – | – | > 1500 | – | –
5 | NC(=O)N=C(N)CCCOc1ccc2[nH]c(CN3CCCCC3)nc2c1 [Example 118, N-carbamoyl-4-[5-<2-(1-piperidinomethyl)benzimidazolyl>oxy]butyroamidine.3hydrochloride] | – | – | > 1500 | – | –
6 | CN(C)Cc1nc2cc(CSCCNc3nccc(=O)[nH]3)ccc2[nH]1 [Example 72, 2-[2-<5-(2-dimethyaminomethylbenzimidazolyl)methylthio>ethylamino]-4-pyrimidone] | 851 | – | – | 53 | –

The next lines start with results.

Row | Kb [1] [nM] | inhibitory effect of histamine H2 receptor in atria (pA2 value) [1] | Compound | LD50 at 168 h [2] [mg/kg] | inhibition in vivo at 2 mg/kg [3] [%] | inhibitory effect of acid secretion (%) at 2 mg/kg s.c. ([3]; n=5, * significant at 5%) [%]
7 | 1580 | – | C#CCNC1=NS(=O)(=O)N=C1NCCSCc1ccc2[nH]c(CN(C)C)nc2c1 [Example 110, 3-[2-<5-(2-dimethylaminomethylbenzimidazolyl)methylthio>ethyl]amino-4-(2-propynylamino)-1,2,5-thiadoazole-1,1-dioxide] | – | 68 | –
8 | 1380 | – | CNC(=NC#N)NCCCOc1ccc2[nH]c(CN3CCCCC3)nc2c1 [Example 5, N-cyano-N'-methyl-N"-{3-[5-<2-(1-piperidinomethyl)benzimidazolyl>oxy]propyl}guanidine] | – | 65 | –
9 | 2450 | – | CNC(=C[N+](=O)[O-])NCCCOc1ccc2[nH]c(CN3CCCC3)nc2c1 [Example 28, 1-nitro-2-methylamino-2-[3-<5-(2-(1-pyrrolidinomethyl)benzimidazolyl)oxy>propylamino]ethylene] | – | 64 | –
10 | 631 | – | CNC(=C[N+](=O)[O-])NCCOc1ccc2[nH]c(CN3CCCC3)nc2c1 [Example 25, 1-nitro-2-methylamino-2-[2-<5-(2-(1-pyrrolidinomethyl)benzimidazolyl)oxy>ethylamino]ethylene] | – | 99 | –
11 | – | 5.75 | 1-methyl-3-pyridylideneimino-5-[2-<5-(2-dimethylaminomethylbenzimidazolyl)methylthio>ethyl]-1H-1,2,4-triazole-5-amine [Example 100] | – | – | 72
12 | 603 | – | CN(C)Cc1nc2cc(CSCCNc3nnc(Cc4cccnc4)c(=O)[nH]3)ccc2[nH]1 [Example 87, 3-[2-<5-(2-dimethylaminomethylbenzimidazolyl)methylthio>ethylamino]-6-(3-pyridylmethyl)-1,2,4-triazine-5-one] | – | 84 | –
13 | 631 | – | CN(C)Cc1nc2cc(OCCCNc3ncc(Cc4ccc5c(c4)OCO5)c(=O)[nH]3)ccc2[nH]1 [Example 62, 5-[5-(1,3-benzodioxolyl)methyl]-2-[3-<5-(2-dimethylaminomethylbenzimidazolyl)oxy>propylamino]-4-pyrimidone] | – | 84 | –
14 | 1510 | – | CNC(=NC#N)NCCCCOc1ccc2[nH]c(CN(C)C)nc2c1 [Example 2, N-cyano-N'-methyl-N"-[4-<5-(2-dimethylaminomethylbenzimidazolyl)oxy>butyl]guanidine] | – | 75 | –

From patent US4550118A, “Heterocyclic compounds” (Ikeda Mohando Co., Ltd., priority 1982, dated 1985)
